We go through 5 compounds from patent US6514911B1, “Substituted oxadiazines useful as pesticides” (Uniroyal Chemical Company, Inc., priority 2002, dated 2003).

Holding throughout (type): in vivo
In assay [1] the test system is green foxtail (Setaria virdis (L.) Beauv.) (GF). Kind of assay: Preemergence herbicide test, soil drench, green foxtail. To be noted: Setaria, 336 h, 10 lbs/A (11.2 kg/ha) soil drench, two weeks after treatment, vs untreated checks, read-out: Percent Weed Control GF. The method, boiled down: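 Compound in acetone/water with ethoxylated sorbitan monolaurate emulsifier, applied as 250 ppm soil drench at 10 lb/acre (11.2 kg/ha) to pots sown with green foxtail seed. Percent weed control versus untreated checks rated two weeks after treatment.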

Assay [2] deals with switchgrass (Panicum virgahim L.) (SG). In words: Postemergence herbicide test, foliar spray, switchgrass. The settings on record: 3000 ppm foliar spray to drip point, treated six days after emergence, two weeks after treatment. The procedure:
To illustrate the effectiveness of the previously described substituted oxadiazines of this invention as preemergence herbicides, 300 mg of the chemical was dissolved in a composition comprising 10 mL acetone to which 30 mg of tile emulsifying agent, ethoxylated sorbitan monolaurate, was added. The solution was diluted to 100 mL with distilled water. Ten milliliters of this 3000 ppm solution was diluted to 250 ppm with distilled water. The chemical was applied at the rate of 10 pounds/acre (11.2 kg/ha) by drenchings 46 mL of the 250 ppm solution on the surface of soil in 41⁄2 inch (11.25 cm) plastic pots wherein seeds of the following weeds had been planted: switchgrass (Panicum […].) (SG), To illustrate the effectiveness of the described substituted oxadiazines as postemergence herbicides, the 3000 ppm solution described under Example 5 was atomized with a conventional DeVilbissTM sprayer, wetting the foliage to the drip point. The weeds, which were the same species as described in Example 5, were treated six days after emergence. The percent weed control was evaluated two weeks after treatment.

The subject of assay [3] is tall morningglory (Ipomoea purpurea (L.) Roth) (TM). In words: Preemergence herbicide test, soil drench, tall morningglory. The settings on record: Ipomoea, 336 h, 10 lbs/A (11.2 kg/ha) soil drench, two weeks after treatment, vs untreated checks, read-out: Percent Weed Control TM. In a few lines: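 Acetone/emulsifier formulation diluted to 250 ppm and drenched onto soil surface of seeded pots at 10 lb/acre (11.2 kg/ha), preemergence. Percent weed control versus untreated checks scored two weeks after treatment.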

The subject of assay [4] is velvetleaf (Abutilon theophrasti Medik.) (VL). Kind of assay: Postemergence herbicide test, foliar spray, velvetleaf. The settings on record: 3000 ppm foliar spray to drip point, treated six days after emergence, two weeks after treatment. The procedure: (§1) To illustrate the effectiveness of the previously described substituted oxadiazines of this invention as preemergence herbicides, 300 mg of the chemical was dissolved in a composition comprising 10 mL acetone to which 30 mg of tile emulsifying agent, ethoxylated sorbitan monolaurate, was added. The solution was diluted to 100 mL with distilled water. Ten milliliters of this 3000 ppm solution was diluted to 250 ppm with distilled water. The chemical was applied at the rate of 10 pounds/acre (11.2 kg/ha) by drenchings 46 mL of the 250 ppm solution on the surface of soil in 4½ inch (11.25 cm) plastic pots wherein seeds of the following weeds had been planted: velvetleaf (Abutilon theophrasti Medik.) (VL), To illustrate the effectiveness of the described substituted oxadiazines as postemergence herbicides, the 3000 ppm solution described under Example 5 was atomized with a conventional DeVilbiss™ sprayer, wetting the foliage to the drip point. The weeds, which were the same species as described in Example 5, were treated six days after emergence. The percent weed control was evaluated two weeks after treatment.

The subject of assay [5] is prickly sida (Sida spinosa L.) (PS). In words: Preemergence herbicide test, soil drench, prickly sida. The settings on record: Sida spinosa, 336 h, 10 lbs/A (11.2 kg/ha) soil drench, two weeks after treatment, vs untreated checks, read-out: Percent Weed Control PS.
For assay [6], the system named is barnyardgrass (Echinochloa crus-galli (L.) Beauv.) (BG). In words: Postemergence herbicide test, foliar spray, barnyardgrass. The settings on record: 3000 ppm foliar spray to drip point, treated six days after emergence, two weeks after treatment. The procedure:
as §1, with “barnyardgrass (Echinochloa crus-galli (L.) Beauv.) (BG), and” for “velvetleaf (Abutilon theophrasti Medik.) (VL),”

Molecules are shown by their SMILES.

`FC(F)(F)C1=NC(C(F)(F)F)(C(F)(F)F)N=C(c2cccc(Cl)c2)O1` [Compound 4, 2-(3-chlorophenyl)-4,4,6-tris(trifluoromethyl)-4H-1,3,5-oxadiazine]: the pest or weed control at 11208.5 g/ha in assay [1], in assay [3] and in assay [5] was 100% in each case. Further, the “Percent Weed Control SG” value in assay [2] amounted to 80%. Further, the “Percent Weed Control VL” value in assay [4] is 50%. The “Percent Weed Control BG” value in assay [6] is given as 100%.

On to `FC(F)(F)C(F)(F)C1=NC(C(F)(F)F)(C(F)(F)F)N=C(c2cccc(Cl)c2)O1` [Compound 13, 2-(3-chlorophenyl)-6-(pentafluoroethyl)-4,4-bis(trifluoromethyl)-4H-1,3,5-oxadiazine], for which the pest or weed control at 11208.5 g/ha in assay [1], in assay [3] and in assay [5] was 100% in each case. In addition, in assay [2], the “Percent Weed Control SG” value came out at 90%. In addition, in assay [4], the “Percent Weed Control VL” value was found to be 100%. For the same compound, in assay [6], the “Percent Weed Control BG” value is listed as 80%.

As for `Fc1ccc(C2=NC(C(F)(F)F)(C(F)(F)F)N=C(C(F)(F)C(F)(F)F)O2)cc1Cl` [Compound 20, 2-(3-chloro-4-fluorophenyl)-6-(pentafluoroethyl)-4,4-bis(trifluoromethyl)-4H-1,3,5-oxadiazine], the pest or weed control at 11208.5 g/ha in assay [1], in assay [3] and in assay [5] was 100% throughout. Further, in assay [2], the “Percent Weed Control SG” value amounted to 30%. Further, the “Percent Weed Control VL” value in assay [4] amounted to 70%. Also, the “Percent Weed Control BG” value in assay [6] is reported as 30%.

For the compound `FC(F)(F)C(F)(F)C1=NC(C(F)(F)F)(C(F)(F)F)N=C(c2ccc(Cl)cc2)O1` [Compound 24, 2-(4-chlorophenyl)-6-(pentafluoroethyl)-4,4-bis(trifluoromethyl)-4H-1,3,5-oxadiazine], the pest or weed control at 11208.5 g/ha in assay [1], in assay [3] and in assay [5] was 100% throughout. Moreover, in assay [2], the “Percent Weed Control SG” value is given as 20%. In assay [4], the “Percent Weed Control VL” value is 50%. The “Percent Weed Control BG” value in assay [6] is 20%.

Take `FC(F)(F)C(F)(F)C1=NC(C(F)(F)F)(C(F)(F)F)N=C(c2ccc(Br)cc2)O1` [Compound 25, 2-(4-bromophenyl)-6-(pentafluoroethyl)-4,4-bis(trifluoromethyl)-4H-1,3,5-oxadiazine]: the pest or weed control at 11208.5 g/ha in assay [1], in assay [3] and in assay [5] was 100% in each case. Moreover, in assay [2], the “Percent Weed Control SG” value worked out at 0%. Further, the “Percent Weed Control VL” value in assay [4] amounted to 100%. The “Percent Weed Control BG” value in assay [6] was 50%.
